The values below come from article PMC6240894 (2018).

Assay [1] concerns Kras 22 (DNA, G4) AGGGCGGTGTGGGAATAGGGAA
The experiment in a line: UV/Vis and fluorescence titration, averaged. To be noted: K+ 100 mM; 10 mM Tris, pH 7.4, 25 °C; site 1 of 2; K12 1.7 × 10^6; 1:2 fit of lower credibility.

The subject of assay [2] is 25Ceb (DNA, G4) AGGGTGGGTGTAAGTGTGGGTGGGT
The assay can be described thus: UV/Vis and fluorescence titration, averaged. The conditions noted are these: K+ 100 mM; 10 mM Tris, pH 7.4, 25 °C.

Assay [3] relates to sG4 (DNA, G4) GGGTGGGTAGGGTGGG
The assay can be described thus: UV/Vis and fluorescence titration, averaged. To be noted: K+ 100 mM; 10 mM Tris, pH 7.4, 25 °C.

Assay [4] relates to VAV-1 (DNA, G4) GGGCAGGGAGGGAACTGGG
The experiment in a line: UV/Vis and fluorescence titration, averaged. The conditions noted are these: K+ 100 mM; 10 mM Tris, pH 7.4, 25 °C.

Assay [5] deals with c-myc (DNA, G4) TGAGGGTGGGTAGGGTGGGTAA
The experiment in a line: UV/Vis and fluorescence titration, averaged. To be noted: K+ 100 mM; 10 mM Tris, pH 7.4, 25 °C.

For assay [6], the system named is Kras 32 (DNA, G4) AGGGCGGTGTGGGAAGAGGGAAGAGGGGGAGG
The assay can be described thus: UV/Vis and fluorescence titration, averaged. The conditions noted are these: K+ 100 mM; 10 mM Tris, pH 7.4, 25 °C; site 1 of 2; K12 4.1 × 10^5; 1:2 fit of lower credibility.

Assay [7] concerns 22AG (DNA, G4) AGGGTTAGGGTTAGGGTTAGGG
The experiment in a line: fluorescence and UV/Vis titration. The conditions noted are these: K+ 100 mM; 10 mM Tris, pH 7.4, 25 °C; lower optical response.

For `COCCOCCOCCOc1cc(CN2C(=CC3=C([O-])C(=Cc4sc5ccccc5[n+]4Cc4cc(OCCOCCOCCOC)c(OCCOCCOCCOC)c(OCCOCCOCCOC)c4)C3=C(C#N)C#N)Sc3ccccc32)cc(OCCOCCOCCOC)c1OCCOCCOCCOC`, the K11 in assay [1] is 1.5e+07 M⁻¹; in assay [2], 900000 M⁻¹; in assay [3] it was 8.1e+06 M⁻¹; in assay [4] it was 1.2e+07 M⁻¹; in assay [5] it was 1e+07 M⁻¹; in assay [6], 5.9e+06 M⁻¹. Besides, the binding entry in assay [7] is reported as “weak”.
